From PubChem BioAssay (NCI) come the findings set out here.

Molecules are shown by their SMILES.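 Step 1: Grow cells in 96-well plates. Step 2: Expose to compound for 48 hours at 5 concentrations. Step 3: Interpolate endpoints linearly; if unreached, use highest concentration. GI50 is the concentration that inhibits growth by half. The concentration for full growth arrest is given as TGI.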 Calls of active or inactive are those of the source. Rule as the data show it: active = GI50 below about 0.43 µM; inactive = the rest.

Among the test systems are CCRF-CEM leukemia; A498 renal; HOP-62 NSCLC; NCI-H226 lung; SN12C renal; OVCAR-3 ovarian; LOX IMVI melanoma; OVCAR-8 ovarian.
Assay in all cases: growth of human tumour cells (NCI), 48 h

Consider `COc1ccc(C(=O)C#Cc2cnc(OC)nc2OC)cc1`, for which the GI50 in the assay with CCRF-CEM leukemia is 2530 µM; in the assay with NCI-H226 lung it was 16900 µM; with LOX IMVI melanoma it was 9800 µM; with OVCAR-8 ovarian it was 32300 µM. The TGI with CCRF-CEM leukemia was 10800 µM; in the assay on A498 renal, 35.1 µM; in the assay with HOP-62 NSCLC, 30.7 µM; in the assay with SN12C renal it was 2.63 µM; with OVCAR-3 ovarian, 3.24 µM; in the assay on OVCAR-8 ovarian, 3.4 µM. Moreover, the result in the assay on A498 renal, in the assay on HOP-62 NSCLC and in the assay with OVCAR-3 ovarian was inactive.
For `Nc1c(-c2ccc(Cl)cc2)[n+]([O-])c2ccccc2[n+]1[O-]`, the TGI in the assay with CCRF-CEM leukemia, with A498 renal, with HOP-62 NSCLC, in the assay on NCI-H226 lung, with SN12C renal and in the assay on OVCAR-3 ovarian was > 100 µM in each case. The TGI in the assay with LOX IMVI melanoma and in the assay on OVCAR-8 ovarian was > 100 µM in each case.
On to `COc1ccc2nc3c(C(=O)NCCN(C)C)cccc3nc2c1`, for which the TGI was > 100 µM with CCRF-CEM leukemia; 7.54 µM with A498 renal; 21.4 µM in the assay with HOP-62 NSCLC; 38.6 µM with NCI-H226 lung; 22.5 µM with SN12C renal; 59.9 µM in the assay with OVCAR-3 ovarian. Moreover, the TGI in the assay with LOX IMVI melanoma was 17.9 µM; in the assay on OVCAR-8 ovarian it was > 100 µM.
Take `O=C1c2cccc([N+](=O)[O-])c2C(=O)N1c1ncn[nH]1`: the TGI in the assay with CCRF-CEM leukemia, with A498 renal, with HOP-62 NSCLC, with NCI-H226 lung, in the assay on SN12C renal and with OVCAR-3 ovarian was > 100 µM throughout. For the same compound, the TGI in the assay with LOX IMVI melanoma and in the assay on OVCAR-8 ovarian was > 100 µM throughout.
In the case of `N#CC(C#N)=C1Nc2ccccc2S1`, the GI50 is 45.5 µM in the assay with CCRF-CEM leukemia; 26.6 µM with A498 renal; 40.3 µM in the assay on HOP-62 NSCLC; 27.3 µM with NCI-H226 lung; 38.2 µM with SN12C renal; 20.3 µM in the assay with OVCAR-3 ovarian. The results for the GI50 in the assay with LOX IMVI melanoma and in the assay with OVCAR-8 ovarian were 42.5 µM and 35.4 µM, respectively. Also, the TGI was > 100 µM in the assay with CCRF-CEM leukemia; 55.5 µM in the assay with A498 renal; > 100 µM in the assay with HOP-62 NSCLC; 76.8 µM in the assay on NCI-H226 lung; > 100 µM in the assay with SN12C renal; 62.9 µM with OVCAR-3 ovarian. Moreover, the TGI in the assay with LOX IMVI melanoma and in the assay with OVCAR-8 ovarian was > 100 µM each time.
In the case of `O=S(=O)(NC1=NCCN1C(=S)SN1CCn2c1nsc2=S)c1cccc(Cl)c1`, the GI50 with CCRF-CEM leukemia is 3.81 µM; with A498 renal, 34.3 µM; in the assay on HOP-62 NSCLC, 18.5 µM; in the assay on NCI-H226 lung, 19 µM; in the assay with SN12C renal, 14.9 µM; with OVCAR-3 ovarian it was 12.9 µM. The GI50 in the assay on LOX IMVI melanoma was 10.7 µM; in the assay on OVCAR-8 ovarian, 26.4 µM. For the same compound, the TGI was > 100 µM with CCRF-CEM leukemia; 81.5 µM in the assay with A498 renal; 37.6 µM with HOP-62 NSCLC; 55.7 µM in the assay on NCI-H226 lung; 40.6 µM in the assay on SN12C renal; 28.5 µM in the assay with OVCAR-3 ovarian. The TGI in the assay on LOX IMVI melanoma was 22.9 µM; with OVCAR-8 ovarian, > 100 µM.
For `C=C(C[C@](O)(C(=O)/C=C/c1ccc(Cl)cc1)C(=O)OC)c1ccccc1`, the GI50 was 2.86 µM with CCRF-CEM leukemia; 11.6 µM in the assay with A498 renal; 2.72 µM in the assay on HOP-62 NSCLC; 3.48 µM in the assay on NCI-H226 lung; 2.41 µM in the assay on SN12C renal; 1.56 µM in the assay on OVCAR-3 ovarian. Further, the GI50 with LOX IMVI melanoma was 0.719 µM; in the assay on OVCAR-8 ovarian, 3.43 µM. The TGI in the assay with CCRF-CEM leukemia amounted to 13 µM; in the assay on A498 renal, 23.8 µM; in the assay with HOP-62 NSCLC, 9.03 µM; in the assay on NCI-H226 lung, 16.3 µM; with SN12C renal, 6.1 µM; in the assay with OVCAR-3 ovarian, 3.08 µM. The results for the TGI in the assay with LOX IMVI melanoma and in the assay with OVCAR-8 ovarian were 2.24 µM and 12.8 µM, respectively.
Consider `CS(=O)(=O)CCNCc1ccc(-c2ccc3ncnc(Nc4ccc(OCc5ccccc5)cc4)c3c2)o1`, for which the GI50 with CCRF-CEM leukemia is 0.631 µM; with A498 renal, 2.98 µM; with HOP-62 NSCLC, 9.66 µM; in the assay on NCI-H226 lung, 13.2 µM; in the assay with SN12C renal, 5.87 µM; in the assay on OVCAR-3 ovarian it was 8.47 µM. Also, the GI50 in the assay with LOX IMVI melanoma was 4.05 µM; with OVCAR-8 ovarian, 8.73 µM. For the same compound, the TGI with CCRF-CEM leukemia is > 15.6 µM; in the assay on A498 renal, 8.27 µM; in the assay with HOP-62 NSCLC, > 25 µM; in the assay on NCI-H226 lung it was > 25 µM; with SN12C renal, > 25 µM; with OVCAR-3 ovarian, > 25 µM. The TGI is 8.75 µM in the assay on LOX IMVI melanoma and > 25 µM in the assay on OVCAR-8 ovarian.
In the case of `COc1ccc(N2C(=O)/C(=C/c3ccc(N(CCC#N)CCC#N)cc3C)N=C2c2cc([N+](=O)[O-])ccc2Cl)cc1`, the TGI with CCRF-CEM leukemia is 37.7 µM; with A498 renal, > 56.2 µM; in the assay with HOP-62 NSCLC, > 63.1 µM; in the assay on NCI-H226 lung, 42.8 µM; in the assay on SN12C renal, > 56.2 µM; with OVCAR-3 ovarian, 11.3 µM. The figures for the TGI in the assay with LOX IMVI melanoma and with OVCAR-8 ovarian were > 56.2 µM and 45.7 µM, respectively.
Turning to `Cc1ccc(C(=O)NC(C)C)cc1-c1ccc(C(=O)NCC2CC2)cc1`, the GI50 with CCRF-CEM leukemia, with A498 renal, in the assay with HOP-62 NSCLC, in the assay with NCI-H226 lung, in the assay with SN12C renal and in the assay with OVCAR-3 ovarian was > 25 µM each time. In addition, the GI50 in the assay with LOX IMVI melanoma and with OVCAR-8 ovarian was > 25 µM throughout. Besides, the TGI in the assay on CCRF-CEM leukemia, in the assay with A498 renal, in the assay on HOP-62 NSCLC, in the assay on NCI-H226 lung, in the assay with SN12C renal and in the assay with OVCAR-3 ovarian was > 25 µM each time. Besides, the TGI with LOX IMVI melanoma and in the assay with OVCAR-8 ovarian was > 25 µM each time.
For the compound `O=C(CCc1nnc2sc(-c3ccc(Cl)cc3Cl)nn12)c1nc2ccccc2[nH]1`, the GI50 in the assay on CCRF-CEM leukemia was 0.265 µM; in the assay on A498 renal, 0.845 µM; in the assay on HOP-62 NSCLC, 0.577 µM; in the assay on NCI-H226 lung, 0.663 µM; in the assay on SN12C renal, 1.41 µM; in the assay on OVCAR-3 ovarian, 0.491 µM. Besides, the GI50 is 0.233 µM with LOX IMVI melanoma and 1.48 µM with OVCAR-8 ovarian. Also, the TGI came out at 0.974 µM with CCRF-CEM leukemia; 2.26 µM with A498 renal; 2.12 µM in the assay on HOP-62 NSCLC; 1.56 µM in the assay on NCI-H226 lung; 4.22 µM in the assay with SN12C renal; 1.71 µM with OVCAR-3 ovarian. Further, the TGI in the assay on LOX IMVI melanoma is 0.671 µM; in the assay with OVCAR-8 ovarian it was > 23.4 µM.
Regarding `COc1ccc(-c2nc(-c3nc4ccc(Cl)cc4[nH]3)c3ccccn23)cc1`, the GI50 in the assay with CCRF-CEM leukemia is 27.3 µM; in the assay with A498 renal, 5.61 µM; in the assay on HOP-62 NSCLC it was 1.96 µM; in the assay on NCI-H226 lung it was 1.94 µM; in the assay on SN12C renal, 3.75 µM; in the assay with OVCAR-3 ovarian it was 2.61 µM. The GI50 with LOX IMVI melanoma is 2.85 µM; with OVCAR-8 ovarian it was 2.4 µM. The TGI with CCRF-CEM leukemia is > 100 µM; in the assay on A498 renal, 29.2 µM; in the assay on HOP-62 NSCLC it was 3.76 µM; in the assay on NCI-H226 lung, 4.46 µM; in the assay with SN12C renal, 17.8 µM; in the assay on OVCAR-3 ovarian, 6.69 µM. Further, the TGI in the assay with LOX IMVI melanoma is 6.66 µM; with OVCAR-8 ovarian it was 6.69 µM.
Turning to `CC/C=C\C[C@@H](O)C/C=C1/C(=O)C=C[C@H]1C/C=C\CCCC(=O)OC`, the GI50 in the assay on CCRF-CEM leukemia is 0.461 µM; with A498 renal, 14.6 µM; in the assay with HOP-62 NSCLC it was 3.31 µM; with NCI-H226 lung, 2.14 µM; in the assay on SN12C renal it was 4.64 µM; with OVCAR-3 ovarian it was 3.1 µM. Further, the GI50 is 0.329 µM with LOX IMVI melanoma and 3.26 µM with OVCAR-8 ovarian. Further, the TGI stood at 4.36 µM in the assay with CCRF-CEM leukemia; 28.1 µM with A498 renal; 9.8 µM in the assay with HOP-62 NSCLC; 5.04 µM in the assay with NCI-H226 lung; 19.3 µM in the assay with SN12C renal; 10.3 µM with OVCAR-3 ovarian. For the same compound, the values for the TGI with LOX IMVI melanoma and in the assay with OVCAR-8 ovarian were 1.51 µM and 10.4 µM, respectively.
In the case of `CC[C@@]1(c2ccccc2)C2=C(CC(C)(C)CC2=O)Nc2[nH]ncc21`, the GI50 was 31.8 µM with CCRF-CEM leukemia; 16.7 µM in the assay on A498 renal; > 100 µM in the assay with HOP-62 NSCLC; > 100 µM in the assay on NCI-H226 lung; > 100 µM in the assay on SN12C renal; > 100 µM in the assay with OVCAR-3 ovarian. Also, the GI50 with LOX IMVI melanoma and with OVCAR-8 ovarian was > 100 µM in each case. The TGI is > 100 µM with CCRF-CEM leukemia; 56.3 µM in the assay on A498 renal; > 100 µM in the assay on HOP-62 NSCLC; > 100 µM in the assay with NCI-H226 lung; > 100 µM in the assay with SN12C renal; > 100 µM with OVCAR-3 ovarian. Also, the TGI in the assay with LOX IMVI melanoma and in the assay with OVCAR-8 ovarian was > 100 µM throughout.
As for `CCCCCCCC(=O)OCC/C=C/C1OC1C1OC(=O)/C=C\C=C\c2nc(oc2C)/C=C(/C)CCC2OC2C1OC(=O)NC(C)=O` (stereo not given), the GI50 in the assay on CCRF-CEM leukemia was 0.0651 µM; with A498 renal, 0.00368 µM; in the assay on HOP-62 NSCLC, 0.0686 µM; in the assay with NCI-H226 lung, 0.0426 µM; in the assay with SN12C renal, 0.0491 µM; in the assay with OVCAR-3 ovarian, 0.0537 µM. Further, the GI50 with LOX IMVI melanoma is 0.0372 µM; with OVCAR-8 ovarian it was 0.028 µM. Further, the TGI was 3.98 µM with CCRF-CEM leukemia; 0.00927 µM with A498 renal; 0.381 µM in the assay on HOP-62 NSCLC; 0.161 µM with NCI-H226 lung; 0.554 µM with SN12C renal; 0.142 µM in the assay with OVCAR-3 ovarian. Moreover, the values for the TGI in the assay on LOX IMVI melanoma and in the assay with OVCAR-8 ovarian were 0.648 µM and 0.826 µM, respectively.
